Source: US8758816B2, “Compositions comprising azelastine and methods of use thereof” (priority 2004, dated 2014)

Tested on: patients with seasonal allergic rhinitis (SAR)
Assay: MP 428 two-week randomized double-blind study: Total Nasal Symptom Score (TNSS), change from baseline
Type: in vivo, human
Parameters: key to Change from Baseline in AM TNSS, Mean / Change from Baseline in AM TNSS, LS Mean / Change from Baseline in AM TNSS, Median: TNSS sum of 4 symptoms each 0-3 (0=none, 3=severe); change from baseline
Description: A two-week, randomized, double-blind study, which evaluated the effects of the co-administration of ASTELIN® (azelastine hydrochloride (HCl)) and FLONASE® (fluticasone propionate) compared to either product alone in patients with seasonal allergic rhinitis (SAR) was conducted during the 2006 Texas mountain cedar season. After a 5-day placebo lead-in period, 151 patients with moderate-to-severe allergic rhinitis symptoms were randomized to either: (1) (49 total patients) ASTELIN® (azelastine hydrochloride (HCl)) plus placebo saline nasal spray 2 sprays per nostril, 15 minutes apart, twice daily (AM & PM); (2) (50 total patients) FLONASE® (fluticasone propionate) plus placebo saline nasal spray, 2 sprays per nostril, 15 minutes apart, once daily (AM) and two sessions of placebo saline nasal spray, 2 sprays per nostril, 15 minutes apart (PM); or (3) (52 total patients) the co-administration of ASTELIN® (azelastine hydrochloride (HCl)) 2 sprays per nostril plus FLONASE® (fluticasone propionate) 2 sprays per nostril (AM), 15 minutes apart, and ASTELIN® (azelastine hydrochloride (HCl)) 2 sprays per nostril plus placebo saline nasal spray, 15 minutes apart, (PM) for a 2-week double-blind treatment period.
The primary efficacy variable was the change from baseline in the Total Nasal Symptom Score (TNSS), which comprised sneezing, itchy nose, runny nose, and nasal congestion (individual symptoms scores were assigned a value between 0 and 3, where 0=no symptoms and 3=severe symptoms). This study was not statistically designed to assess the differences between ASTELIN® and FLONASE®.

[1] = Day 2, Intent-to-Treat Population
[2] = Day 3, Intent-to-Treat Population
[3] = Day 4, Intent-to-Treat Population
[4] = Day 5, Intent-to-Treat Population

Structure (SMILES): CCC(=O)O[C@]1(C(=O)SCF)[C@H](C)C[C@H]2[C@@H]3C[C@H](F)C4=CC(=O)C=C[C@]4(C)[C@@]3(F)[C@@H](O)C[C@@]21C [Fluticasone, fluticasone propionate]
- Primary Reason for Discontinuation From Study: Treatment Failure (All Randomized Patients): 1 (2.0) N (%)
- Change from Baseline in AM TNSS, LS Mean [1]: −1.58
- Change from Baseline in AM TNSS, Mean [1]: −1.65
- Change from Baseline in AM TNSS, Median [1]: −1.00
- Change from Baseline in AM and PM Combined TNSS, Mean [1]: −3.24
- Change from Baseline in AM and PM Combined TNSS, Median [1]: −2.00
- Change from Baseline in PM TNSS, LS Mean [1]: −1.54
- Change from Baseline in PM TNSS, Mean [1]: −1.59
- Change from Baseline in PM TNSS, Median [1]: −1.00
- Percent Change from Baseline in AM TNSS, LS Mean [1]: −16.43%
- Percent Change from Baseline in AM TNSS, Mean [1]: −17.21%
- Percent Change from Baseline in AM TNSS, Median [1]: −11.11%
- Percent Change from Baseline in AM and PM Combined TNSS, LS Mean [1]: −16.35%
- Percent Change from Baseline in AM and PM Combined TNSS, Mean [1]: −16.91%
- Percent Change from Baseline in AM and PM Combined TNSS, Median [1]: −12.46%
- Percent Change from Baseline in PM TNSS, LS Mean [1]: −16.05%
- Percent Change from Baseline in PM TNSS, Mean [1]: −16.52%
- Percent Change from Baseline in PM TNSS, Median [1]: −11.11%
- Change from Baseline in AM and PM Combined TNSS, LS Mean (Day 2, Intent-to-Treat Population, ANCOVA model): −3.12
- Change from Baseline in AM and PM Combined TNSS, LS Mean (Day 2, Per-Protocol Population): −3.10
- Change from Baseline in AM and PM Combined TNSS, Mean (Day 2, Per-Protocol Population): −3.27
- Change from Baseline in AM and PM Combined TNSS, Median (Day 2, Per-Protocol Population): −2.00
- Percent Change from Baseline in AM and PM Combined TNSS, LS Mean (Day 2, Per-Protocol Population): −16.38%
- Percent Change from Baseline in AM and PM Combined TNSS, Mean (Day 2, Per-Protocol Population): −17.11%
- Percent Change from Baseline in AM and PM Combined TNSS, Median (Day 2, Per-Protocol Population): −12.46%
- Change from Baseline in AM TNSS, LS Mean [2]: −2.01
- Change from Baseline in AM TNSS, Mean [2]: −2.04
- Change from Baseline in AM TNSS, Median [2]: −1.50
- Change from Baseline in AM and PM Combined TNSS, Mean [2]: −4.12
- Change from Baseline in AM and PM Combined TNSS, Median [2]: −3.20
- Change from Baseline in PM TNSS, LS Mean [2]: −2.08
- Change from Baseline in PM TNSS, Mean [2]: −2.08
- Change from Baseline in PM TNSS, Median [2]: −1.80
- Percent Change from Baseline in AM TNSS, LS Mean [2]: −21.72%
- Percent Change from Baseline in AM TNSS, Mean [2]: −22.09%
- Percent Change from Baseline in AM TNSS, Median [2]: −14.29%
- Percent Change from Baseline in AM and PM Combined TNSS, LS Mean [2]: −22.17%
- Percent Change from Baseline in AM and PM Combined TNSS, Mean [2]: −22.26%
- Percent Change from Baseline in AM and PM Combined TNSS, Median [2]: −16.67%
- Percent Change from Baseline in PM TNSS, LS Mean [2]: −22.22%
- Percent Change from Baseline in PM TNSS, Mean [2]: −22.28%
- Percent Change from Baseline in PM TNSS, Median [2]: −20.00%
- Change from Baseline in AM and PM Combined TNSS, LS Mean (Day 3, Intent-to-Treat Population, ANCOVA model): −4.09
- Change from Baseline in AM and PM Combined TNSS, LS Mean (Day 3, Per-Protocol Population): −4.18
- Change from Baseline in AM and PM Combined TNSS, Mean (Day 3, Per-Protocol Population): −4.25
- Change from Baseline in AM and PM Combined TNSS, Median (Day 3, Per-Protocol Population): −3.47
- Percent Change from Baseline in AM and PM Combined TNSS, LS Mean (Day 3, Per-Protocol Population): −22.68%
- Percent Change from Baseline in AM and PM Combined TNSS, Mean (Day 3, Per-Protocol Population): −22.87%
- Percent Change from Baseline in AM and PM Combined TNSS, Median (Day 3, Per-Protocol Population): −16.67%
- Change from Baseline in AM TNSS, LS Mean [3]: −2.43
- Change from Baseline in AM TNSS, Mean [3]: −2.41
- Change from Baseline in AM TNSS, Median [3]: −2.67
- Change from Baseline in AM and PM Combined TNSS, Mean [3]: −4.53
- Change from Baseline in AM and PM Combined TNSS, Median [3]: −4.17
- Change from Baseline in PM TNSS, LS Mean [3]: −2.10
- Change from Baseline in PM TNSS, Mean [3]: −2.12
- Change from Baseline in PM TNSS, Median [3]: −1.80
- Percent Change from Baseline in AM TNSS, LS Mean [3]: −25.32%
- Percent Change from Baseline in AM TNSS, Mean [3]: −25.07%
- Percent Change from Baseline in AM TNSS, Median [3]: −27.27%
- Percent Change from Baseline in AM and PM Combined TNSS, LS Mean [3]: −23.75%
- Percent Change from Baseline in AM and PM Combined TNSS, Mean [3]: −23.67%
- Percent Change from Baseline in AM and PM Combined TNSS, Median [3]: −23.60%
- Percent Change from Baseline in PM TNSS, LS Mean [3]: −21.91%
- Percent Change from Baseline in PM TNSS, Mean [3]: −22.22%
- Percent Change from Baseline in PM TNSS, Median [3]: −20.00%
- Change from Baseline in AM and PM Combined TNSS, LS Mean (Day 4, Intent-to-Treat Population, ANCOVA model): −4.53
- Change from Baseline in AM and PM Combined TNSS, LS Mean (Day 4, Per-Protocol Population): −4.61
- Change from Baseline in AM and PM Combined TNSS, Mean (Day 4, Per-Protocol Population): −4.63
- Change from Baseline in AM and PM Combined TNSS, Median (Day 4, Per-Protocol Population): −4.17
- Percent Change from Baseline in AM and PM Combined TNSS, LS Mean (Day 4, Per-Protocol Population): −24.10%
- Percent Change from Baseline in AM and PM Combined TNSS, Mean (Day 4, Per-Protocol Population): −24.08%
- Percent Change from Baseline in AM and PM Combined TNSS, Median (Day 4, Per-Protocol Population): −23.60%
- Change from Baseline in AM TNSS, LS Mean [4]: −2.59
- Change from Baseline in AM TNSS, Mean [4]: −2.57
- Change from Baseline in AM TNSS, Median [4]: −2.00
- Change from Baseline in AM and PM Combined TNSS, Mean [4]: −5.16
- Change from Baseline in AM and PM Combined TNSS, Median [4]: −4.40
- Change from Baseline in PM TNSS, LS Mean [4]: −2.61
- Change from Baseline in PM TNSS, Mean [4]: −2.59
- Change from Baseline in PM TNSS, Median [4]: −2.00
- Percent Change from Baseline in AM TNSS, LS Mean [4]: −26.91%
- Percent Change from Baseline in AM TNSS, Mean [4]: −26.62%
- Percent Change from Baseline in AM TNSS, Median [4]: −19.23%
- Percent Change from Baseline in AM and PM Combined TNSS, LS Mean [4]: −27.20%
